Tests used:
Format in all cases: cell-based, human
143B cells = experiment: CCK-8 anti-proliferative assay, 143B; details: Homo sapiens, 143B; Table 14; comparative compounds; co-incubated 48 h; read-out: Anti-proliferative activity (IC50 ± standard deviation) 143B
Excerpt: (§1) The obtained quinazolinyl-aryl urea derivatives were screened for compounds with optimal activity using the following method. All cell lines employed in this experiment were of human origin, including: bladder cancer cells: J82, UM-UC-3, T24, 5637, pancreatic cancer cells: BxPC-3, PANC-1, osteosarcoma cells: 143B, MG-63, cervical cancer cells: HeLa, breast cancer cells: MCF-7, NSCLC cells: A549, hepatoblastoma cells: Hep G2, and ovarian cancer cells: SK-OV-3, as well as normal cell lines: immortalized ureteral epithelial cells (SV-HUC-1), embryonic lung fibroblasts (WI-38).
(§2) Experimental Procedure for Anti-Proliferative Activity Evaluation: The CCK-8 assay was employed. Cells in logarithmic growth phase were harvested, adjusted to appropriate density, and uniformly seeded into 96-well plates using a multichannel pipette (180 μL cell suspension containing complete medium per well, 5,000 cells/well). Blank control wells (containing basal medium, CCK-8 solution, and DMSO only) were set. Cells were incubated at 37° C. under 5% CO2. After 70% confluency was reached, test compounds (target compounds/positive controls) were added at final concentrations of 1, 2, 4, 6, 8, 12, 16, 24, and 30 μM (3 repeated wells per concentration). Compounds were pre-dissolved in DMSO, sterilized, and diluted with medium before adding 20 μL/well. After co-incubation for designated durations, 10 μL CCK-8 solution was added per well followed by 1-4 h incubation (different cells have different incubation times). The reaction was terminated, and OD (optical density) values at 450 nm were measured using a microplate reader. Inhibition rates were calculated as: (ODcontrol−ODtreatment)/ODcontrol×100%. Median inhibitory concentrations (IC50 values) were derived using Origin v8.0 software.

MG-63 cells = experiment: CCK-8 anti-proliferative assay, MG-63; details: Homo sapiens, MG-63; Table 14; comparative compounds; co-incubated 48 h; read-out: Anti-proliferative activity (IC50 ± standard deviation) MG-63
Excerpt: as §1, §2

PANC-1 cells = experiment: CCK-8 anti-proliferative assay, PANC-1; details: Homo sapiens, PANC-1; Table 15; comparative compounds; co-incubated 48 h; read-out: Anti-proliferative activity (IC50 ± standard deviation) PANC-1
Excerpt: as §1, §2

BxPC-3 cells = experiment: CCK-8 anti-proliferative assay, BxPC-3; details: Homo sapiens, BXPC-3; Table 15; comparative compounds; co-incubated 48 h; read-out: Anti-proliferative activity (IC50 ± standard deviation) BxPC-3
Excerpt: as §1, §2

UM-UC-3 cells = experiment: CCK-8 anti-proliferative assay, UM-UC-3; details: Homo sapiens, UMUC3; Table 14; comparative compounds; co-incubated 48 h; read-out: Anti-proliferative activity (IC50 ± standard deviation) UM-UC-3
Procedure: (§3) The obtained quinazolinyl-aryl urea derivatives were screened for compounds with optimal activity using the following method.
as §2, with “The reaction was terminated, and OD (optical density) values at 450 nm were measured using a microplate reader.” left out

SK-OV-3 cells = experiment: CCK-8 anti-proliferative assay, SK-OV-3; details: Homo sapiens, SK-OV-3; Table 15; comparative compounds; co-incubated 48 h; read-out: Anti-proliferative activity (IC50 ± standard deviation) SK-OV-3
Procedure: as §3
as §2, with “The reaction was terminated, and OD (optical density) values at 450 nm were measured using a microplate reader.” left out

SMILES | IC50 (PANC-1 cells) | IC50 (BxPC-3 cells) | IC50 (SK-OV-3 cells) | IC50 (143B cells) | IC50 (MG-63 cells) | IC50 (UM-UC-3 cells)
CCc1ccccc1NC(=O)Nc1cccc(CNc2ncnc3cc(OC)c(OC)cc23)c1 [Compound I-5, reference compound] | 12.5 ± 0.97 µM | 6.54 ± 0.61 µM | 7.76 ± 0.38 µM | 6.47 ± 0.28 µM | 13.4 ± 0.95 µM | 10.5 ± 0.71 µM
COc1ccccc1NC(=O)Nc1cccc(CNc2ncnc3cc(OC)c(OC)cc23)c1 [Compound I-6, reference compound] | 26.5 ± 2.36 µM | 23.6 ± 1.47 µM | 9.12 ± 0.44 µM | 19.3 ± 1.67 µM | 25.4 ± 1.74 µM | 20.6 ± 2.37 µM
COc1ccc(NC(=O)Nc2cccc(CNc3ncnc4cc(OC)c(OC)cc34)c2)cc1 [Compound I-7, reference compound] | > 30 µM | 22.8 ± 1.71 µM | 13.7 ± 0.85 µM | 21.3 ± 1.59 µM | > 30 µM | 18.6 ± 1.35 µM
COc1cc2ncnc(NCc3cccc(NC(=O)Nc4ccc(F)cc4)c3)c2cc1OC [Compound I-9, reference compound] | 10.7 ± 0.95 µM | 8.62 ± 0.86 µM | 10 ± 0.53 µM | 6.11 ± 0.42 µM | 14.8 ± 1.22 µM | 9.56 ± 0.72 µM
COc1cc2ncnc(NCc3cccc(NC(=O)Nc4ccccc4Cl)c3)c2cc1OC [Compound I-10, reference compound] | 11.7 ± 0.82 µM | 9.85 ± 0.76 µM | 11.2 ± 0.92 µM | 7.74 ± 0.39 µM | 11.1 ± 0.54 µM | 8.77 ± 0.41 µM
COc1cc2ncnc(NCc3cccc(NC(=O)NCc4ccccc4)c3)c2cc1OC [Compound I-14, reference compound] | > 30 µM | 12.3 ± 0.56 µM | 19.7 ± 0.73 µM | > 30 µM | > 30 µM | > 30 µM

Further lines, with some results ahead:

IC50 (PANC-1 cells) | IC50 (BxPC-3 cells) | IC50 (SK-OV-3 cells) | SMILES | IC50 (143B cells) | IC50 (MG-63 cells) | IC50 (UM-UC-3 cells)
> 30 µM | 27.6 ± 1.91 µM | > 30 µM | O=C(Nc1ccccc1)Nc1cccc(CNc2ncnc3ccccc23)c1 [Compound II-1, reference compound] | > 30 µM | > 30 µM | > 30 µM
> 30 µM | 15.5 ± 1.71 µM | 19.5 ± 1.37 µM | Cc1cccc(NC(=O)Nc2cccc(CNc3ncnc4ccccc34)c2)c1 [Compound II-2, reference compound] | 13.2 ± 0.86 µM | 19.3 ± 1.76 µM | 22.8 ± 1.38 µM
> 30 µM | 14.3 ± 0.86 µM | 14.7 ± 0.98 µM | Cc1ccc(NC(=O)Nc2cccc(CNc3ncnc4ccccc34)c2)cc1 [Compound II-3, reference compound] | 11.3 ± 0.88 µM | 17.8 ± 0.95 µM | 17.8 ± 0.57 µM
14.8 ± 1.24 µM | 9.92 ± 0.41 µM | 8.4 ± 0.53 µM | CCc1cccc(CC)c1NC(=O)Nc1cccc(CNc2ncnc3ccccc23)c1 [Compound II-5, reference compound] | 7.26 ± 0.35 µM | 10.5 ± 0.82 µM | 8.72 ± 0.36 µM
15.7 ± 1.52 µM | 13.3 ± 0.87 µM | 7.78 ± 0.69 µM | CC(C)(C)c1ccc(NC(=O)Nc2cccc(CNc3ncnc4ccccc34)c2)cc1 [Compound II-9, reference compound] | 10.5 ± 0.43 µM | 9.24 ± 0.71 µM | 9.77 ± 0.52 µM
